Legend:
[1] = Cytotoxicity on uninfected Hep-2 cells (MTT, 48 h); type: cell-based; details: human, read-out: CC50 (reduce cell viability by 50%), CVB3 host cells
Experimental: (§1) Human laryngeal carcinoma cells (Hep-2) and human cervical carcinoma cells (HeLa) were maintained in DMEM (Gibco) supplemented with 10% fetal bovine serum (FBS; Gibco), 100 U/mL penicillin and streptomycin, and 2 mM L-glutamine.
(§2) The antiviral activities of compounds against CVB3 and ADV7 were determined by measuring their inhibition of virus-induced CPEs in acutely infected Hep-2 and HeLa cells, respectively. Confluent cell monolayers in 96-well plates were infected with 100 TCID50 of CVB3 or ADV7 for 1.5 h at 37 °C, inocula were aspirated, and the cells then were incubated with various concentrations of compounds at 37 °C, 5% CO2, for 48 h. CPEs were observed by microscopy and the viability of cells was determined using MTT assays. The concentrations of test compounds required to achieve 50% protection from virus-induced cytopathogenicity (EC50 values) were determined. Adverse effects of tested compounds on host cells were also assessed using the MTT method after exposing uninfected cells to various concentrations of test compounds for 48 h at 37 °C. The CC50 values of compounds were calculated using SPSS software and selectivity indices were the ratio of CC50:EC50. Each experiment was performed in triplicate and at least three times, independently.

[2] = Cytotoxicity on uninfected HeLa cells (MTT, 48 h); type: cell-based; details: human, read-out: CC50 (reduce cell viability by 50%), ADV7 host cells
Experimental: as §1, §2

CVB3 = assay: Inhibition of CVB3-induced cytopathic effects in Hep-2 cells (MTT); type: cell-based, Coxsackievirus B3; details: for EC50: Enterovirus B, 100 TCID50 CVB3, 48 h, MTT, read-out: EC50 (50% protection from virus-induced cytopathogenicity), CVB3
Experimental: (§3) Figure 1 Antiviral activities of novel 2-benzoxyl-phenylpyridine derivatives against CVB3 and ADV7. […] Hep-2 or HeLa cells were infected with 100 TCID50 of CVB3 or ADV7 for 1.5 h at 37 °C. Then, the inocula were aspirated and the cells were incubated with various concentrations of test compounds for 48 h. Cell viability was determined using the MTT assay. (b) Images showing the morphology of Hep-2 and HeLa cells treated with 120 μM W-9, 160 μM W-13, or 160 μM W-15 (magnification, 20×).
as §2

ADV7 = assay: Inhibition of ADV7-induced cytopathic effects in HeLa cells (MTT); type: cell-based, adenovirus type 7; details: for EC50: Human mastadenovirus B, 100 TCID50 ADV7, 48 h, MTT, read-out: EC50 (50% protection from virus-induced cytopathogenicity), ADV7
Experimental: as §3, §2

| SMILES | CC50 at 48 h [1] | CC50 at 48 h [2] | SI (CC50/EC50), CVB3 (CVB3) | inhibitory activity against CVB3 infection (in words) (CVB3) | EC50 (CVB3) | SI (CC50/EC50), ADV7 (ADV7) | inhibitory activity against ADV7 infection (in words) (ADV7) | EC50 (ADV7) |
| --- | --- | --- | --- | --- | --- | --- | --- | --- |
| O=C(Oc1ccccc1-c1ccccn1)c1ccccc1 [W1] | 594 ± 49.1 µM | 1060 ± 93.5 µM | – | – | – | – | – | – |
| COc1ccc(-c2ccccn2)c(OC(=O)c2ccccc2)c1 [W2] | 240 ± 22 µM | > 656 µM | 2.4 | significant inhibitory activities | 101 ± 14.1 µM | >12.9 | significant inhibitory activities | 50.8 ± 16.7 µM |
| Cc1cccc(OC(=O)c2ccccc2)c1-c1ccccn1 [W3] | 630 ± 39.4 µM | 921 ± 59.5 µM | 6.0 | – | – | 9.8 | – | – |
| Cc1cccnc1-c1ccc(Cl)cc1OC(=O)c1ccccc1 [W4] | 222 ± 24.1 µM | 797 ± 45.7 µM | 4.1 | selective antiviral activities against CVB3 | 54.4 ± 11.1 µM | – | – | – |
| COc1ccc(OC(=O)c2ccccc2)c(-c2ncccc2C)c1 [W5] | 33.5 ± 9.4 µM | 38.9 ± 18.8 µM | – | – | – | – | – | – |
| Cc1ccc(OC(=O)c2ccccc2)c(-c2ncccc2C)c1 [W6] | 244 ± 30.4 µM | 326 ± 21.8 µM | 2.8 | significant inhibitory activities | 88.4 ± 19.5 µM | 4.9 | significant inhibitory activities | 66 ± 20.1 µM |
| Cc1cccnc1-c1sccc1OC(=O)c1ccccc1 [W7] | 350 ± 28.8 µM | 1030 ± 63.1 µM | – | – | – | – | – | – |
| Cc1cccnc1-c1ccc(F)cc1OC(=O)c1ccccc1 [W8] | 354 ± 49.5 µM | 843 ± 37.1 µM | 4.4 | selective antiviral activities against CVB3 | 80.1 ± 15 µM | – | – | – |
| O=C(Oc1cc(Br)ccc1-c1ccccn1)c1ccccc1 [W10] | 184 ± 26.3 µM | 249 ± 23.2 µM | 5.0 | significant inhibitory activities | 36.7 ± 15.8 µM | 4.9 | significant inhibitory activities | 51.1 ± 20.1 µM |
| O=C(Oc1ccsc1-c1ccccn1)c1ccccc1 [W11] | 378 ± 19.2 µM | 1020 ± 72.6 µM | – | – | – | – | – | – |
| Cc1cccnc1-c1ccc(Br)cc1OC(=O)c1ccccc1 [W12] | 128 ± 17.9 µM | 211 ± 14.7 µM | – | – | – | 3.3 | selective anti-ADV7 activity | 63.6 ± 16.6 µM |
| CC(=O)c1ccc(-c2ccccn2)c(OC(=O)c2ccccc2)c1 [W14] | 490 ± 26.8 µM | 979 ± 27.8 µM | 5.6 | significant inhibitory activities | 87.1 ± 21.1 µM | 13.0 | significant inhibitory activities | 75.4 ± 20.2 µM |
